Results published in patent US8362027B2, “Iontophoretic preparation for treatment of breast cancer and/or mastitis” (Kowa Co., Ltd., priority 2005, dated 2013).
Read-outs that look alike come from different tables or passages of the source. Blank lines part the entries; values can stand above or below the compound they belong to.

Experiments:
[1] = not given; remark: listed apart in the source
[2] = nipple skin (corrected to nipple part only), no application of electric potential, 60 min
[3] = nipple skin (corrected to nipple part only), no application of electric potential, 120 min
[4] = nipple skin (corrected to nipple part only), no application of electric potential, 180 min
[5] = nipple skin, no application of electric potential

permeated amount of 5-fluorouracil (nipple skin (corrected to nipple part only), application of electric potential (3 V), 60 min): 17.6 μg/cm^2
permeated amount of 5-fluorouracil (nipple skin (corrected to nipple part only), application of electric potential (3 V), 120 min): 151.7 μg/cm^2
permeated amount of 5-fluorouracil (nipple skin (corrected to nipple part only), application of electric potential (3 V), 180 min): 383.3 μg/cm^2
permeated amount of 5-fluorouracil (nipple skin (corrected to nipple part only), application of electric potential (3 V), 240 min): 676.3 μg/cm^2
permeated amount of 5-fluorouracil (nipple skin (corrected to nipple part only), application of electric potential (3 V), 300 min): 1032.3 μg/cm^2
permeated amount of 5-fluorouracil (nipple skin (corrected to nipple part only), application of electric potential (3 V), 360 min): 1391.3 μg/cm^2
permeated amount of 5-fluorouracil [2]: 0.0 μg/cm^2
permeated amount of 5-fluorouracil [3]: 0.2 μg/cm^2
permeated amount of 5-fluorouracil [4]: 0.7 μg/cm^2
permeated amount of 5-fluorouracil (nipple skin (corrected to nipple part only), no application of electric potential, 240 min): 1.6 μg/cm^2
permeated amount of 5-fluorouracil (nipple skin (corrected to nipple part only), no application of electric potential, 300 min): 3.0 μg/cm^2
permeated amount of 5-fluorouracil (nipple skin (corrected to nipple part only), no application of electric potential, 360 min): 5.6 μg/cm^2
Increase rate of permeated amount after 360 minutes with respect to normal skin without application of electric potential (nipple skin, application of electric potential (3 V)): 9937.8
Increase rate of permeated amount after 360 minutes with respect to normal skin without application of electric potential [5]: 39.7
increase of permeability of 5-fluorouracil (nipple, compared with the permeability without application of electric potential): about 40 times
increase of permeability of 5-fluorouracil (nipple, electric potential applied (3V), vs normal skin): about 10000 times
Increase rate of permeated amount after 360 minutes with respect to normal skin without application of electric potential (normal skin, application of electric potential (3 V)): 3430.7
permeated amount of 5-fluorouracil (normal skin, application of electric potential (3 V), 60 min, donor 1%, pH 8.5): 1.3 μg/cm^2
permeated amount of 5-fluorouracil (normal skin, application of electric potential (3 V), 120 min, donor 1%, pH 8.5): 11.7 μg/cm^2
permeated amount of 5-fluorouracil (normal skin, application of electric potential (3 V), 180 min, donor 1%, pH 8.5): 44.4 μg/cm^2
permeated amount of 5-fluorouracil (normal skin, application of electric potential (3 V), 240 min, donor 1%, pH 8.5): 121.5 μg/cm^2
permeated amount of 5-fluorouracil (normal skin, application of electric potential (3 V), 300 min, donor 1%, pH 8.5): 264.9 μg/cm^2
permeated amount of 5-fluorouracil (normal skin, application of electric potential (3 V), 360 min, donor 1%, pH 8.5): 480.3 μg/cm^2
increase of permeability of 5-fluorouracil (normal skin, electric potential applied (3V), vs without potential): about 3000 times
permeated amount of 5-fluorouracil (normal skin, no application of electric potential, 60 min, donor 1%, pH 8.5): 0.0 μg/cm^2
permeated amount of 5-fluorouracil (normal skin, no application of electric potential, 120 min, donor 1%, pH 8.5): 0.0 μg/cm^2
permeated amount of 5-fluorouracil (normal skin, no application of electric potential, 180 min, donor 1%, pH 8.5): 0.0 μg/cm^2
permeated amount of 5-fluorouracil (normal skin, no application of electric potential, 240 min, donor 1%, pH 8.5): 0.0 μg/cm^2
permeated amount of 5-fluorouracil (normal skin, no application of electric potential, 300 min, donor 1%, pH 8.5): 0.1 μg/cm^2
permeated amount of 5-fluorouracil (normal skin, no application of electric potential, 360 min, donor 1%, pH 8.5): 0.1 μg/cm^2
SMILES: O=c1[nH]cc(F)c(=O)[nH]1 [5-fluorouracil]

SMILES: O=P1(N(CCCl)CCCl)NCCCO1 (stereo not shown) [cyclophosphamide]
permeated amount of cyclophosphamide ([1]; nipple skin (corrected to nipple part only), application of electric potential (0.1 mA/cm^2), 0 min): 0.0 μg/cm^2
permeated amount of cyclophosphamide ([1]; nipple skin (corrected to nipple part only), application of electric potential (0.1 mA/cm^2), 30 min): 34.3 μg/cm^2
permeated amount of cyclophosphamide ([1]; nipple skin (corrected to nipple part only), application of electric potential (0.1 mA/cm^2), 60 min): 123.2 μg/cm^2
permeated amount of cyclophosphamide ([1]; nipple skin (corrected to nipple part only), application of electric potential (0.1 mA/cm^2), 90 min): 125.3 μg/cm^2
permeated amount of cyclophosphamide ([1]; nipple skin (corrected to nipple part only), application of electric potential (0.1 mA/cm^2), 120 min): 121.4 μg/cm^2
permeated amount of cyclophosphamide ([1]; nipple skin (corrected to nipple part only), application of electric potential (0.1 mA/cm^2), 150 min): 120.4 μg/cm^2
permeated amount of cyclophosphamide ([1]; nipple skin (corrected to nipple part only), application of electric potential (0.1 mA/cm^2), 180 min): 123.1 μg/cm^2
permeated amount of cyclophosphamide ([1]; nipple skin (corrected to nipple part only), no application of electric potential, 0 min): 0.0 μg/cm^2
permeated amount of cyclophosphamide ([1]; nipple skin (corrected to nipple part only), no application of electric potential, 30 min): 24.9 μg/cm^2
permeated amount of cyclophosphamide [1, 2]: 2.0 μg/cm^2
permeated amount of cyclophosphamide ([1]; nipple skin (corrected to nipple part only), no application of electric potential, 90 min): 6.9 μg/cm^2
permeated amount of cyclophosphamide [1, 3]: 20.2 μg/cm^2
permeated amount of cyclophosphamide ([1]; nipple skin (corrected to nipple part only), no application of electric potential, 150 min): 1.4 μg/cm^2
permeated amount of cyclophosphamide [1, 4]: 6.9 μg/cm^2
Increase rate of permeated amount after 180 minutes with respect to normal skin without application of electric potential ([1]; nipple skin, application of electric potential (0.1 mA/cm^2)): 7.1
Increase rate of permeated amount after 180 minutes with respect to normal skin without application of electric potential [1, 5]: 0.4
change of permeability of cyclophosphamide ([1]; nipple without electric potential, compared with normal skin): not enhanced
increase of permeability of cyclophosphamide ([1]; nipple, electric potential (0.1 mA/cm^2), vs normal skin without potential): about 7.1 times
Increase rate of permeated amount after 180 minutes with respect to normal skin without application of electric potential ([1]; normal skin, application of electric potential (0.1 mA/cm^2)): 0.9
permeated amount of cyclophosphamide ([1]; normal skin, application of electric potential (0.1 mA/cm^2), 0 min, donor 25 mM, pH 3): 0.0 μg/cm^2
permeated amount of cyclophosphamide ([1]; normal skin, application of electric potential (0.1 mA/cm^2), 30 min, donor 25 mM, pH 3): 13.4 μg/cm^2
permeated amount of cyclophosphamide ([1]; normal skin, application of electric potential (0.1 mA/cm^2), 60 min, donor 25 mM, pH 3): 13.9 μg/cm^2
permeated amount of cyclophosphamide ([1]; normal skin, application of electric potential (0.1 mA/cm^2), 90 min, donor 25 mM, pH 3): 13.7 μg/cm^2
permeated amount of cyclophosphamide ([1]; normal skin, application of electric potential (0.1 mA/cm^2), 120 min, donor 25 mM, pH 3): 16.2 μg/cm^2
permeated amount of cyclophosphamide ([1]; normal skin, application of electric potential (0.1 mA/cm^2), 150 min, donor 25 mM, pH 3): 16.3 μg/cm^2
permeated amount of cyclophosphamide ([1]; normal skin, application of electric potential (0.1 mA/cm^2), 180 min, donor 25 mM, pH 3): 16.2 μg/cm^2
change of permeability of cyclophosphamide ([1]; normal skin, electric potential applied (0.1 mA/cm^2), vs without potential): hardly changed
permeated amount of cyclophosphamide ([1]; normal skin, no application of electric potential, 0 min, donor 25 mM, pH 3): 0.0 μg/cm^2
permeated amount of cyclophosphamide ([1]; normal skin, no application of electric potential, 30 min, donor 25 mM, pH 3): 13.3 μg/cm^2
permeated amount of cyclophosphamide ([1]; normal skin, no application of electric potential, 60 min, donor 25 mM, pH 3): 14.4 μg/cm^2
permeated amount of cyclophosphamide ([1]; normal skin, no application of electric potential, 90 min, donor 25 mM, pH 3): 15.0 μg/cm^2
permeated amount of cyclophosphamide ([1]; normal skin, no application of electric potential, 120 min, donor 25 mM, pH 3): 15.5 μg/cm^2
permeated amount of cyclophosphamide ([1]; normal skin, no application of electric potential, 150 min, donor 25 mM, pH 3): 17.2 μg/cm^2
permeated amount of cyclophosphamide ([1]; normal skin, no application of electric potential, 180 min, donor 25 mM, pH 3): 17.4 μg/cm^2
